Results on 31 compounds are retold here after patent publication US10174047B2, “Thienodiazepine derivatives or pharmaceutically acceptable salts thereof, and pharmaceutical composition including the same as an active ingredient” (Industry-University Cooperation Foundation Hanyang …, priority 2015, dated 2019).

The first experiment relates to A375P cell line (melanoma). The experiment can be described thus: Proliferation inhibition activity against A375P cell line (MTT assay). It is filed as cell-based. Particulars: A375P melanoma cells, MTT assay; read-out: A375P (GI50). On the procedure:
Measurement of Proliferation Inhibition Activity Against A375P Cell Line (Melanoma)
An A375P cell line purchased from ATCC was cultured in a DMEM medium [containing 10% FBS, 1% penicillin/streptomycin] at 37° C. in the presence of 5% CO2. The cultured A375P cell line was taken using 0.05% trypsin-0.02% EDTA, and seeded into a 96-well plate at a density of 5×10^3 cells per well.
Cell viability was measured using an MTT [3-(4,5-dimethylthiazol-2-yl)-2,5-diphenyltetrazolium bromide] assay (CellTiter 96 Assay, Promega) as follows. 15 μl of dye was placed per well, the cells were cultured for 2 hours, and then treated with 100 μl of a stop solution, and after 24 hours, absorbance was measured. One day after plating, they were treated with compounds. For treatment with compounds, […] of stock was prepared, and serially diluted to one-third in dimethyl sulfoxide (DMSO) to prepare a 12-point test compound plate, and 0.5 μl was added (final concentration DMSO 0.5%).
In the following Tables 1 to 3, in a case of GI50 being 10 to 30 μM, it was indicated as (+), in a case of it being 1 to 10 μM, it was indicated as (++), and in case of being less than 1 μM, it was indicated as (+++).
With `O=C1CC(c2ccc(NC(=O)c3ccc(Cl)c(C(F)(F)F)c3)cc2)=Nc2cscc2N1` [Example 1, 4-chloro-N-(4-(2-oxo-2,3-dihydro-1H-thieno[3,4-b][1,4]diazepine-4-yl)phenyl)-3-(trifluoromethyl)benzamide], the GI50 was 1 to 10 µM.

With `Cc1cn(-c2cc(C(=O)Nc3ccc(C4=Nc5cscc5NC(=O)C4)cc3)cc(C(F)(F)F)c2)cn1` [Example 2, 3-(4-methyl-1H-imidazol-1-yl)-N-(4-(2-oxo-2,3-dihydro-1H-thieno[3,4-b][1,4]diazepine-4-yl)phenyl)-5-(trifluoromethyl)benzamide], the GI50 is less than 1 µM. `O=C1CC(c2ccc(NC(=O)c3cc(N4CCOCC4)cc(C(F)(F)F)c3)cc2)=Nc2cscc2N1` [Example 3, 3-morpholino-N-(4-(2-oxo-2,3-dihydro-1H-thieno[3,4-b][1,4]diazepine-4-yl)phenyl)-5-(trifluoromethyl)benzamide]: the GI50 was less than 1 µM.

For `O=C1CC(c2ccc(NC(=O)c3ccc(N4CCOCC4)c(C(F)(F)F)c3)cc2)=Nc2cscc2N1` [Example 4, 4-morpholino-N-(4-(2-oxo-2,3-dihydro-1H-thieno[3,4-b][1,4]diazepine-4-yl)phenyl)-3-(trifluoromethyl)benzamide], the GI50 lay in the range of 1 to 10 µM.

As to `O=C1CC(c2ccc(NC(=O)c3ccc(-c4ccccc4)cc3)cc2)=Nc2cscc2N1` [Example 5, N-(4-(2-oxo-2,3-dihydro-1H-thieno[3,4-b][1,4]diazepine-4-yl)phenyl)biphenyl-4-carboxamide], the GI50 was less than 1 µM. Still for that read-out and setting: the result for `O=C1CC(c2ccc(NC(=O)c3ccccc3-c3ccccc3)cc2)=Nc2cscc2N1` [Example 6, N-(4-(2-oxo-2,3-dihydro-1H-thieno[3,4-b][1,4]diazepine-4-yl)phenyl)biphenyl-2-carboxamide] reads 10 to 30 µM; that for `O=C1CC(c2ccc(NC(=O)c3cnn(-c4ccccc4)c3C(F)(F)F)cc2)=Nc2cscc2N1` [Example 7, N-(4-(2-oxo-2,3-dihydro-1H-thieno[3,4-b][1,4]diazepine-4-yl)phenyl)-1-phenyl-5-(trifluoromethyl)-1H-pyrazole-4-carboxamide], 1 to 10 µM. As to `CC(=O)N1CCC(C(=O)Nc2ccc(C3=Nc4cscc4NC(=O)C3)cc2)CC1` [Example 8, 1-acetyl-N-(4-(2-oxo-2,3-dihydro-1H-thieno[3,4-b][1,4]diazepine-4-yl)phenyl)piperidine-4-carboxamide], the concentration for 50% growth inhibition (GI50) fell in the range of 10 to 30 µM. Take `O=C1CC(c2ccc(NC(=O)C(c3ccc(Cl)cc3)c3ccc(Cl)cc3)cc2)=Nc2cscc2N1` [Example 9, 2,2-bis(4-chlorophenyl)-N-(4-(2-oxo-2,3-dihydro-1H-thieno[3,4-b][1,4]diazepine-4-yl)phenyl)acetamide]: the concentration for 50% growth inhibition (GI50) lay within 10 to 30 µM. On the same count and under the same terms, the result for `O=C1CC(c2ccc(NC(=O)c3ccncc3)cc2)=Nc2cscc2N1` [Example 10, N-(4-(2-oxo-2,3-dihydro-1H-thieno[3,4-b][1,4]diazepine-4-yl)phenyl)isonicotinamide] reads 10 to 30 µM. Same read-out and setting: the figure for `O=C1CC(c2ccc(NC(=O)c3cnccn3)cc2)=Nc2cscc2N1` [Example 11, N-(4-(2-oxo-2,3-dihydro-1H-thieno[3,4-b][1,4]diazepine-4-yl)phenyl)pyrazine-2-carboxamide] is 10 to 30 µM; for `CN1CCN(c2cc(C(=O)Nc3ccc(C4=Nc5cscc5NC(=O)C4)cc3)cc(C(F)(F)F)c2)CC1` [Example 12, 3-(4-methylpiperazine-1-yl)-N-(4-(2-oxo-2,3-dihydro-1H-thieno[3,4-b][1,4]diazepine-4-yl)phenyl)-5-(trifluoromethyl)benzamide] it is 10 to 30 µM. On the same count and under the same terms, the result for `O=C1CC(c2ccc(NC(=O)c3ccc(Cl)cc3)cc2)=Nc2cscc2N1` [Example 13, 4-chloro-N-(4-(2-oxo-2,3-dihydro-1H-thieno[3,4-b][1,4]diazepine-4-yl)phenyl)benzamide] reads 10 to 30 µM; that for `O=C(Cc1c[nH]c2ccccc12)Nc1ccc(C2=Nc3cscc3NC(=O)C2)cc1` [Example 14, 2-(1H-indol-3-yl)-N-(4-(2-oxo-2,3-dihydro-1H-thieno[3,4-b][1,4]diazepine-4-yl)phenyl)acetamide], 10 to 30 µM; that for `N#Cc1ccccc1Sc1ccccc1C(=O)Nc1ccc(C2=Nc3cscc3NC(=O)C2)cc1` [Example 15, 2-(2-cyanophenylthio)-N-(4-(2-oxo-2,3-dihydro-1H-thieno[3,4-b][1,4]diazepine-4-yl)phenyl)benzamide], 10 to 30 µM. As to `O=C(Cc1ccc(-c2ccccc2)cc1)Nc1ccc(C2=Nc3cscc3NC(=O)C2)cc1` [Example 16, 2-(biphenyl-4-yl)-N-(4-(2-oxo-2,3-dihydro-1H-thieno[3,4-b][1,4]diazebine-4-yl)phenyl)acetamide], the GI50 was in the range of 10 to 30 µM. On the same count and under the same terms, the result for `Cc1cc(C)cc(C(=O)Nc2ccc(C3=Nc4cscc4NC(=O)C3)cc2)c1` [Example 17, 3,5-dimethyl-N-(4-(2-oxo-2,3-dihydro-1H-thieno[3,4-b][1,4]diazepine-4-yl)phenyl)benzamide] reads 10 to 30 µM. Same read-out and setting: the result for `O=C1CC(c2cccc(NC(=O)c3ccc(Cl)c(C(F)(F)F)c3)c2)=Nc2cscc2N1` [Example 18, 4-chloro-N-(3-(2-oxo-2,3-dihydro-1H-thieno[3,4-b][1,4]diazepine-4-yl)phenyl)-3-(trifluoromethyl)benzamide] reads 1 to 10 µM; that for `Cc1cn(-c2cc(C(=O)Nc3cccc(C4=Nc5cscc5NC(=O)C4)c3)cc(C(F)(F)F)c2)cn1` [Example 19, 3-(4-methyl-1H-imidazol-1-yl)-N-(3-(2-oxo-2,3-dihydro-1H-thieno[3,4-b][1,4]diazepine-4-yl)phenyl)-5-(trifluoromethyl)benzamide], 10 to 30 µM. Still for that read-out and setting: the result for `O=C1CC(c2cccc(NC(=O)c3cc(N4CCOCC4)cc(C(F)(F)F)c3)c2)=Nc2cscc2N1` [Example 20, 3-morpholino-N-(3-(2-oxo-2,3-dihydro-1H-thieno[3,4-b][1,4]diazepine-4-yl)phenyl)-5-(trifluoromethyl)benzamide] reads less than 1 µM. For the compound `O=C1CC(c2cccc(NC(=O)c3ccc(N4CCOCC4)c(C(F)(F)F)c3)c2)=Nc2cscc2N1` [Example 21, 4-morpholino-N-(3-(2-oxo-2,3-dihydro-1H-thieno[3,4-b][1,4]diazepine-4-yl)phenyl)-3-(trifluoromethyl)benzamide], the concentration for 50% growth inhibition (GI50) lay in the range of 1 to 10 µM. The same measure, in the same setting: the result for `O=C1CC(c2cccc(NC(=O)c3ccc(-c4ccccc4)cc3)c2)=Nc2cscc2N1` [Example 22, N-(3-(2-oxo-2,3-dihydro-1H-thieno[3,4-b][1,4]diazepine-4-yl)phenyl)biphenyl-4-carboxamide] reads 10 to 30 µM. Same read-out and setting: the result for `O=C1CC(c2cccc(NC(=O)c3ccccc3-c3ccccc3)c2)=Nc2cscc2N1` [Example 23, N-(3-(2-oxo-2,3-dihydro-1H-thieno[3,4-b][1,4]diazepine-4-yl)phenyl)biphenyl-2-carboxamide] reads 10 to 30 µM. On the same count and under the same terms, the result for `O=C1CC(c2cccc(NC(=O)c3cnn(-c4ccccc4)c3C(F)(F)F)c2)=Nc2cscc2N1` [Example 24, N-(3-(2-oxo-2,3-dihydro-1H-thieno[3,4-b][1,4]diazepine-4-yl)phenyl)-1-phenyl-5-(trifluoromethyl)-1H-pyrazole-4-carboxamide] reads 10 to 30 µM; that for `CC(=O)N1CCC(C(=O)Nc2cccc(C3=Nc4cscc4NC(=O)C3)c2)CC1` [Example 25, 1-acetyl-N-(3-(2-oxo-2,3-dihydro-1H-thieno[3,4-b][1,4]diazepine-4-yl)phenyl)piperidine-4-carboxamide], 10 to 30 µM; that for `O=C1CC(c2cccc(NC(=O)C(c3ccc(Cl)cc3)c3ccc(Cl)cc3)c2)=Nc2cscc2N1` [Example 26, 2,2-bis(4-chlorophenyl)-N-(3-(2-oxo-2,3-dihydro-1H-thieno[3,4-b][1,4]diazepine-4-yl)phenyl)acetamide], 10 to 30 µM.

As for `O=C1CC(c2cccc(NC(=O)c3ccncc3)c2)=Nc2cscc2N1` [Example 27, N-(3-(2-oxo-2,3-dihydro-1H-thieno[3,4-b][1,4]diazepine-4-yl)phenyl)isonicotinamide], the GI50 lay within 10 to 30 µM. On the same count and under the same terms, the result for `O=C1CC(c2cccc(NC(=O)c3cnccn3)c2)=Nc2cscc2N1` [Example 28, N-(3-(2-oxo-2,3-dihydro-1H-thieno[3,4-b][1,4]diazepine-4-yl)phenyl)pyrazine-2-carboxamide] reads 10 to 30 µM; that for `CN1CCN(c2cc(C(=O)Nc3cccc(C4=Nc5cscc5NC(=O)C4)c3)cc(C(F)(F)F)c2)CC1` [Example 29, 3-(4-methylpiperazine-1-yl)-N-(3-(2-oxo-2,3-dihydro-1H-thieno[3,4-b][1,4]diazepine-4-yl)phenyl)-5-(trifluoromethyl)benzamide], 10 to 30 µM. The same measure, in the same setting: the figure for `O=C1CC(c2cccc(NC(=O)c3ccc(Cl)cc3)c2)=Nc2cscc2N1` [Example 30, 4-chloro-N-(3-(2-oxo-2,3-dihydro-1H-thieno[3,4-b][1,4]diazepine-4-yl)phenyl)benzamide] is 10 to 30 µM. Still for that read-out and setting: the figure for `O=C(Cc1c[nH]c2ccccc12)Nc1cccc(C2=Nc3cscc3NC(=O)C2)c1` [Example 31, 2-(1H-indol-3-yl)-N-(3-(2-oxo-2,3-dihydro-1H-thieno[3,4-b][1,4]diazepine-4-yl)phenyl)acetamide] is 10 to 30 µM.

The experiment is the same for the next values; noted with them: A375P melanoma cells, statement in words.
For `Cc1cn(-c2cc(C(=O)Nc3ccc(C4=Nc5cscc5NC(=O)C4)cc3)cc(C(F)(F)F)c2)cn1` [Example 2, 3-(4-methyl-1H-imidazol-1-yl)-N-(4-(2-oxo-2,3-dihydro-1H-thieno[3,4-b][1,4]diazepine-4-yl)phenyl)-5-(trifluoromethyl)benzamide], the “effects against A375P” value is “significant effects”. Same read-out and setting: the result for `O=C1CC(c2ccc(NC(=O)c3cc(N4CCOCC4)cc(C(F)(F)F)c3)cc2)=Nc2cscc2N1` [Example 3, 3-morpholino-N-(4-(2-oxo-2,3-dihydro-1H-thieno[3,4-b][1,4]diazepine-4-yl)phenyl)-5-(trifluoromethyl)benzamide] reads “significant effects”. Still for that read-out and setting: the result for `O=C1CC(c2ccc(NC(=O)c3ccc(-c4ccccc4)cc3)cc2)=Nc2cscc2N1` [Example 5, N-(4-(2-oxo-2,3-dihydro-1H-thieno[3,4-b][1,4]diazepine-4-yl)phenyl)biphenyl-4-carboxamide] reads “significant effects”. `O=C1CC(c2cccc(NC(=O)c3cc(N4CCOCC4)cc(C(F)(F)F)c3)c2)=Nc2cscc2N1` [Example 20, 3-morpholino-N-(3-(2-oxo-2,3-dihydro-1H-thieno[3,4-b][1,4]diazepine-4-yl)phenyl)-5-(trifluoromethyl)benzamide]: the “effects against A375P” value is “significant effects”.

As usually defined, the GI50 is the concentration giving 50% growth inhibition.
